pEC50: −log10 of the molar value. *1 amine or outer side, *2 acyl side, *3 side chain or, on linkers, in order; H or OH if unused. Where a SMILES comes first, the peptide text is derived from it. Side-chain parts run from the residue outwards. [ ]: non-standard residue; d: D form. The star is where a group is joined. C20 diacid = O=C(O)CCCCCCCCCCCCCCCCCCC(=O)*; γGlu = O=C(O)[C@H](CCC(=O)[*:2])N[*:1]; AEEA = NCCOCCOCC(=O)O; Aib = CC(C)(N)C(=O)O
Legend:
[1] = molecular target: T1, human Glucagon receptor (GCGR) (Homo sapiens, UniProt P47871); assay: cAMP accumulation assay, CHO-K1 cells expressing human GCGR; format: cell-based; conditions: mean pEC50, Table 10
T1 construct: A cDNA fragment encoding the full-length open reading frame of the human GCGR; expressed in transfected cells; host or cells: CHO-K1, pcDNA3.1+, Lipofectamine 2000
T1 sequence (P47871 26-477): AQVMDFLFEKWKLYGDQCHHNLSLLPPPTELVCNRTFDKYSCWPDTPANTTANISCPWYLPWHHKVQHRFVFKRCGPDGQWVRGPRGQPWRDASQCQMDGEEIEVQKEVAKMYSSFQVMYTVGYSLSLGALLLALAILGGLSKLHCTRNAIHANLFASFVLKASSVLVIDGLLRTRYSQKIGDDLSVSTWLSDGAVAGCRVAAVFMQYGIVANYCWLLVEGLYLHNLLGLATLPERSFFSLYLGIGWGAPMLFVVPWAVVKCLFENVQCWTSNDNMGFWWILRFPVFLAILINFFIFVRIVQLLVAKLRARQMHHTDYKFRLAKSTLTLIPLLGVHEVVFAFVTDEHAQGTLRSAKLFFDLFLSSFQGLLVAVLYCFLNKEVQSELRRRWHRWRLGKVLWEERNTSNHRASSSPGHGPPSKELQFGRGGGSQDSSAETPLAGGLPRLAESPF
From the text: (§1) In the presence of the non-specific cAMP/cGMP phosphodiesterase inhibitor, 3-isobutyl-1-methylxanthine (IBMX), accumulating cAMP can be measured in vitro using common detection methods. Thus, it is possible to estimate an in vitro potency (pEC50) for peptides activating each of these receptors using fit dose-response curves for cAMP accumulation.
A cDNA fragment encoding the full-length open reading frame of the cynomolgus monkey GLP-1R (Genebank accession #XM_028847603 was cloned into pcDNA3.1+ for expression in CHO-K1 cells. A cDNA fragment encoding the full-length open reading frame of the human GCGR (Genebank accession #NM_000160 was cloned into pcDNA3.1+ for expression in CHO-K1 cells. A cDNA fragment encoding the full-length open reading frame of the rat GCGR (Genebank accession #NM_12091 was cloned into pcDNA3.1+ for expression in CHO-K1 cells. A cDNA fragment encoding the full-length open reading frame of the cynomolgus monkey GCGR (Genebank accession #XM_005585255 was cloned into pcDNA3.1+ for expression in CHO-K1 cells.
(§2) On day 1, CHO-K1 cells were plated at 1.5 million cells per T75 flask in 90% F12-K media supplemented with 10% FBS. On day 3 cells were transfected with 40 mcg of each expression plasmid using Lipofectamine 2000 transfection reagent. On day 5, cells were dispensed at 1000 cells per well in white 384-well OptiPlates in 5 mcL of assay buffer consisting of 1×HBSS, 5 mM HEPES, 0.5 mM IBMX, and 0.1% casein.
(§3) Peptides were serially diluted 4-fold in assay buffer to final concentrations ranging from 1×10^−9 M to 9.5×10^−16 M. Two assay controls consisting of 50 mcM forskolin (cAMP system maximum) or assay buffer only (cAMP system minimum) were also prepared. Five microliters of each peptide-concentration, or assay control, was added to triplicate wells and incubated for thirty minutes at room temperature. During this incubation step a 4× europium labelled cAMP tracer solution and a 4× Ulight®-anti-cAMP solution (consisting of an anti-cAMP monoclonal antibody labelled with Ulight™ dye) was prepared according to the manufacturer's protocol (PerkinElmer LANCE Ultra cAMP kit). Following this incubation, 5 mcL europium labelled cAMP and 5 mcL Ulight anti-cAMP antibody was added to each well. The plate was covered to prevent evaporation and incubated for 60 minutes at room temperature in the dark. Plates were read on an Envision fluorescent plate reader (PerkinElmer).
(§4) Test values were first normalized to the system maximum and system minimum averaged values in Excel using the formula: (test value−system min average)/(system max average -system min average)*100. Normalized test values represent a baseline corrected percentage of the system maximum cAMP response induced by forskolin. Data from up to 3 replicate tests were analyzed for each peptide. Potency values were estimated using GraphPad Prism software (v7.04) by fitting data to a 4-parameter logistic curve model: Y=Bottom+(Top−Bottom)/(1+10^((LogEC50−X))). The Hill slope was constrained to 1.0. EC50 values were converted to pEC50 values using the formula: pEC50=−Log (EC50).

[2] = molecular target: T2, human GLP-1 receptor (GLP-1R) (Homo sapiens, UniProt P43220); assay: cAMP accumulation assay, CHO-K1 cells stably expressing human GLP-1R; format: cell-based; conditions: cAMP accumulation, mean pEC50, Table 10
T2 construct: expressed in transfected cells
T2 sequence (P43220 24-463): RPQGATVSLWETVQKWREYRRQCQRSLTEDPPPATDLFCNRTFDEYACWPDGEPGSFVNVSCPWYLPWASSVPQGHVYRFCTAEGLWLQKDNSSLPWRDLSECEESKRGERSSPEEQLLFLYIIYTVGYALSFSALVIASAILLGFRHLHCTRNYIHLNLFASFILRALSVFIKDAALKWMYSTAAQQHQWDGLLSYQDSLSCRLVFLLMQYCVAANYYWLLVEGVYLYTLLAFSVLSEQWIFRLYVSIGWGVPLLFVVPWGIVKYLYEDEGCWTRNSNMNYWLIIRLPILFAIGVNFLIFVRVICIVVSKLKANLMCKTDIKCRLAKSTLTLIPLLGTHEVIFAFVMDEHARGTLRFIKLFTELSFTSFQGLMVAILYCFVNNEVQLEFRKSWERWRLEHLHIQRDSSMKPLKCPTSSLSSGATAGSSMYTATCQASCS
Method: as §1
CHO-K1 cells stably expressing human GLP-1R (Genebank accession #NM_002062) were grown in 90% F12-K media supplemented with 10% FBS and 250 μg/ml G418.
as §2, §3, §4

SMILES | pEC50 [1] | pEC50 [2]
CC(C)C[C@H](NC(=O)[C@H](Cc1ccc(O)cc1)NC(=O)[C@H](CCCCN)NC(=O)[C@H](CO)NC(=O)[C@H](Cc1ccc(O)cc1)NC(=O)[C@H](CC(=O)O)NC(=O)[C@H](CO)NC(=O)[C@@H](NC(=O)[C@H](Cc1ccccc1)NC(=O)[C@@H](NC(=O)CNC(=O)[C@H](Cc1c[nH]cn1)NC(=O)[C@H](CO)NC(=O)[C@@H](N)Cc1ccc(O)cc1)[C@@H](C)O)[C@@H](C)O)C(=O)N[C@@H](CCCCNC(=O)CC[C@H](NC(=O)CC[C@H](NC(=O)COCCOCCNC(=O)CCCCCCCCCCCCCCCCCCC(=O)O)C(=O)O)C(=O)O)C(=O)NC(C)(C)C(=O)N[C@@H](CCCCN)C(=O)N[C@@H](Cc1ccc(O)cc1)C(=O)N[C@@H](C)C(=O)N[C@@H](CCC(N)=O)C(=O)N[C@@H](CCC(=O)O)C(=O)N[C@@H](Cc1ccccc1)C(=O)N[C@H](C(=O)NC(C)(C)C(=O)N[C@@H](Cc1c[nH]c2ccccc12)C(=O)N[C@@H](CC(C)C)C(=O)N[C@@H](CCC(=O)O)C(=O)N[C@@H](CC(=O)O)C(=O)N[C@@H](CCC(=O)O)C(=O)N1CCC[C@H]1C(=O)N[C@@H](CO)C(=O)N[C@@H](CO)C(=O)NCC(=O)N[C@@H](C)C(=O)N1CCC[C@H]1C(=O)N1CCC[C@H]1C(=O)N1CCC[C@H]1C(=O)N[C@@H](CO)C(=O)O)C(C)C [Compound A1] (H-YSHGTFTSDYSKYLK([γGlu-γGlu-AEEA-C20 diacid])[Aib]KYAQEFV[Aib]WLEDEPSSGAPPPS-OH) | 11.50 | –
CC(C)C[C@H](NC(=O)[C@H](Cc1ccc(O)cc1)NC(=O)[C@H](CCCCN)NC(=O)[C@H](CO)NC(=O)[C@H](Cc1ccc(O)cc1)NC(=O)[C@H](CC(=O)O)NC(=O)[C@H](CO)NC(=O)[C@@H](NC(=O)[C@H](Cc1ccccc1)NC(=O)[C@@H](NC(=O)CNC(=O)[C@H](Cc1c[nH]cn1)NC(=O)[C@H](CO)NC(=O)[C@@H](N)Cc1ccc(O)cc1)[C@@H](C)O)[C@@H](C)O)C(=O)N[C@@H](CC(=O)O)C(=O)NC(C)(C)C(=O)N[C@@H](CCCCN)C(=O)N[C@@H](CCCCNC(=O)CC[C@H](NC(=O)CC[C@H](NC(=O)COCCOCCNC(=O)CCCCCCCCCCCCCCCCCCC(=O)O)C(=O)O)C(=O)O)C(=O)N[C@@H](C)C(=O)N[C@@H](CCC(N)=O)C(=O)N[C@@H](CCC(=O)O)C(=O)N[C@@H](Cc1ccccc1)C(=O)N[C@H](C(=O)NC(C)(C)C(=O)N[C@@H](Cc1c[nH]c2ccccc12)C(=O)N[C@@H](CC(C)C)C(=O)N[C@@H](CCC(=O)O)C(=O)N[C@@H](CC(=O)O)C(=O)N[C@@H](CCC(=O)O)C(=O)N1CCC[C@H]1C(=O)N[C@@H](CO)C(=O)N[C@@H](CO)C(=O)NCC(=O)N[C@@H](C)C(=O)N1CCC[C@H]1C(=O)N1CCC[C@H]1C(=O)N1CCC[C@H]1C(=O)N[C@@H](CO)C(=O)O)C(C)C [Compound A4] (H-YSHGTFTSDYSKYLD[Aib]KK([γGlu-γGlu-AEEA-C20 diacid])AQEFV[Aib]WLEDEPSSGAPPPS-OH; N-terminus assumed) | 11.70 | –
CC(C)C[C@H](NC(=O)[C@H](Cc1ccc(O)cc1)NC(=O)[C@H](CCCCN)NC(=O)[C@H](CO)NC(=O)[C@H](Cc1ccc(O)cc1)NC(=O)[C@H](CC(=O)O)NC(=O)[C@H](CO)NC(=O)[C@@H](NC(=O)[C@H](Cc1ccccc1)NC(=O)[C@@H](NC(=O)CNC(=O)[C@H](Cc1c[nH]cn1)NC(=O)[C@H](CO)NC(=O)[C@@H](N)Cc1ccc(O)cc1)[C@@H](C)O)[C@@H](C)O)C(=O)N[C@@H](CC(=O)O)C(=O)NC(C)(C)C(=O)N[C@@H](CCCCN)C(=O)N[C@@H](Cc1ccc(O)cc1)C(=O)N[C@@H](C)C(=O)N[C@@H](CCCCNC(=O)CC[C@H](NC(=O)CC[C@H](NC(=O)COCCOCCNC(=O)CCCCCCCCCCCCCCCCCCC(=O)O)C(=O)O)C(=O)O)C(=O)N[C@@H](CCC(=O)O)C(=O)N[C@@H](Cc1ccccc1)C(=O)N[C@H](C(=O)NC(C)(C)C(=O)N[C@@H](Cc1c[nH]c2ccccc12)C(=O)N[C@@H](CC(C)C)C(=O)N[C@@H](CCC(=O)O)C(=O)N[C@@H](CC(=O)O)C(=O)N[C@@H](CCC(=O)O)C(=O)N1CCC[C@H]1C(=O)N[C@@H](CO)C(=O)N[C@@H](CO)C(=O)NCC(=O)N[C@@H](C)C(=O)N1CCC[C@H]1C(=O)N1CCC[C@H]1C(=O)N1CCC[C@H]1C(=O)N[C@@H](CO)C(=O)O)C(C)C [Compound A5] (H-YSHGTFTSDYSKYLD[Aib]KYAK([γGlu-γGlu-AEEA-C20 diacid])EFV[Aib]WLEDEPSSGAPPPS-OH; N-terminus assumed) | 11.60 | –
CC(C)C[C@H](NC(=O)[C@H](Cc1ccc(O)cc1)NC(=O)[C@H](CCCCN)NC(=O)[C@H](CO)NC(=O)[C@H](Cc1ccc(O)cc1)NC(=O)[C@H](CC(=O)O)NC(=O)[C@H](CO)NC(=O)[C@@H](NC(=O)[C@H](Cc1ccccc1)NC(=O)[C@@H](NC(=O)CNC(=O)[C@H](Cc1c[nH]cn1)NC(=O)[C@H](CO)NC(=O)[C@@H](N)Cc1ccc(O)cc1)[C@@H](C)O)[C@@H](C)O)C(=O)N[C@@H](CC(=O)O)C(=O)N[C@@H](CCCCNC(=O)CC[C@H](NC(=O)CC[C@H](NC(=O)COCCOCCNC(=O)CCCCCCCCCCCCCCCCCCC(=O)O)C(=O)O)C(=O)O)C(=O)N[C@@H](CCCCN)C(=O)N[C@@H](Cc1ccc(O)cc1)C(=O)N[C@@H](C)C(=O)N[C@@H](CCC(N)=O)C(=O)N[C@@H](CCC(=O)O)C(=O)N[C@@H](Cc1ccccc1)C(=O)NC(C)(C)C(=O)N[C@@H](CCC(N)=O)C(=O)N[C@@H](Cc1c[nH]c2ccccc12)C(=O)N[C@@H](CC(C)C)C(=O)N[C@@H](CCC(=O)O)C(=O)N[C@@H](CC(=O)O)C(=O)N[C@@H](CCC(=O)O)C(=O)N1CCC[C@H]1C(=O)N[C@@H](CO)C(=O)N[C@@H](CO)C(=O)NCC(=O)N[C@@H](C)C(=O)N1CCC[C@H]1C(=O)N1CCC[C@H]1C(=O)N1CCC[C@H]1C(=O)N[C@@H](CO)C(=O)O [Compound A7] (H-YSHGTFTSDYSKYLDK([γGlu-γGlu-AEEA-C20 diacid])KYAQEF[Aib]QWLEDEPSSGAPPPS-OH; N-terminus assumed) | 10.70 | < 9.00
CC(C)C[C@H](NC(=O)[C@H](Cc1ccc(O)cc1)NC(=O)[C@H](CCCCN)NC(=O)[C@H](CO)NC(=O)[C@H](Cc1ccc(O)cc1)NC(=O)[C@H](CC(=O)O)NC(=O)[C@H](CO)NC(=O)[C@@H](NC(=O)[C@H](Cc1ccccc1)NC(=O)[C@@H](NC(=O)CNC(=O)[C@H](Cc1c[nH]cn1)NC(=O)[C@H](CO)NC(=O)[C@@H](N)Cc1ccc(O)cc1)[C@@H](C)O)[C@@H](C)O)C(=O)N[C@@H](CC(=O)O)C(=O)N[C@@H](CCCCNC(=O)CC[C@H](NC(=O)CC[C@H](NC(=O)COCCOCCNC(=O)CCCCCCCCCCCCCCCCCCC(=O)O)C(=O)O)C(=O)O)C(=O)N[C@@H](CCCCN)C(=O)N[C@@H](Cc1ccc(O)cc1)C(=O)N[C@@H](C)C(=O)N[C@@H](CCC(N)=O)C(=O)N[C@@H](CCC(=O)O)C(=O)N[C@@H](Cc1ccccc1)C(=O)NC(C)(C)C(=O)N[C@@H](CCC(=O)O)C(=O)N[C@@H](Cc1c[nH]c2ccccc12)C(=O)N[C@@H](CC(C)C)C(=O)N[C@@H](CCC(=O)O)C(=O)N[C@@H](CC(=O)O)C(=O)N[C@@H](CCC(=O)O)C(=O)N1CCC[C@H]1C(=O)N[C@@H](CO)C(=O)N[C@@H](CO)C(=O)NCC(=O)N[C@@H](C)C(=O)N1CCC[C@H]1C(=O)N1CCC[C@H]1C(=O)N1CCC[C@H]1C(=O)N[C@@H](CO)C(=O)O [Compound A8] (H-YSHGTFTSDYSKYLDK([γGlu-γGlu-AEEA-C20 diacid])KYAQEF[Aib]EWLEDEPSSGAPPPS-OH; N-terminus assumed) | 9.90 | < 9.00
